Source: PubChem BioAssay (NCI)
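Dose response: 5 concentrations. Exposure: 48 h. Format: 96-well plates. Endpoint: linear interpolation; highest concentration if not reached. GI50 = concentration required for 50% inhibition of growth. At the TGI there is no net growth.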

What was measured:
Test in all cases: growth of human tumour cells (NCI), 48 h
[1] = system: IGROV1 ovarian
[2] = system: LOX IMVI melanoma
[3] = system: COLO 205 colon
[4] = system: SF-295 CNS
[5] = system: CCRF-CEM leukemia
[6] = system: KM12 colon
[7] = system: HT29 colon
[8] = system: HOP-92 NSCLC
[9] = system: NCI-H522 lung
[10] = system: NCI/ADR-RES ovarian
[11] = system: SF-539 CNS
[12] = system: UACC-62 melanoma
[13] = system: U251 CNS
[14] = system: SF-268 CNS
[15] = system: NCI-H23 lung
[16] = system: T-47D breast
[17] = system: SNB-75 CNS
[18] = system: MALME-3M melanoma
[19] = system: PC-3 prostate
[20] = system: RXF 393 renal
[21] = system: MDA-MB-231 breast
[22] = system: CAKI-1 renal
[23] = system: NCI-H460 lung
[24] = system: SR leukemia
[25] = system: SK-MEL-5 melanoma
[26] = system: SK-MEL-2 melanoma
[27] = system: SK-OV-3 ovarian
[28] = system: OVCAR-3 ovarian
[29] = system: SNB-19 CNS

## Cc1cc(Nc2nc(-c3ccc(F)cc3)nc3ccccc23)n[nH]1
[1]
  TGI: 9.17 µM
[2]
  GI50: 1.05 µM
  TGI: 11.2 µM
[3]
  GI50: 1.35 µM
  TGI: 3.35 µM
[4]
  GI50: 5.36 µM
  TGI: 21.2 µM
[5]
  GI50: 8.55 µM
  TGI: 39.6 µM
[6]
  GI50: 0.0631 µM
  TGI: 12 µM
[7]
  GI50: 0.691 µM
  TGI: 7.5 µM
[8]
  GI50: 0.72 µM
  TGI: 8.64 µM
[9]
  GI50: 3.44 µM
  TGI: 18.8 µM
[10]
  GI50: 4.5 µM
  TGI: 52.2 µM
[11]
  GI50: 2.81 µM
  TGI: 15.4 µM
[12]
  GI50: 3.96 µM
  TGI: 19.6 µM
[13]
  GI50: 1.75 µM
  TGI: 21.4 µM
[14]
  GI50: 3.85 µM
  TGI: 24.5 µM
[15]
  GI50: 5.74 µM
  TGI: 24.9 µM
[16]
  GI50: 1.92 µM
  TGI: 11.8 µM
[17]
  GI50: 0.469 µM
  TGI: 7.42 µM
[18]
  GI50: 16.4 µM
  TGI: 31.8 µM
[19]
  GI50: 2.26 µM
  TGI: 21.4 µM
[20]
  GI50: 0.757 µM
  TGI: 5.09 µM
[21]
  GI50: 9.15 µM
  TGI: 26.8 µM
[22]
  GI50: 0.453 µM
  TGI: 17.6 µM
[23]
  GI50: 3.17 µM
  TGI: 21 µM
[24]
  GI50: 1.34 µM
  TGI: 38.4 µM
[25]
  GI50: 7.4 µM
  TGI: 20.3 µM
[26]
  GI50: 0.811 µM
  TGI: 16 µM
[27]
  GI50: 0.855 µM
  TGI: 41.8 µM
[28]
  GI50: 4.9 µM
  TGI: 31.6 µM
[29]
  GI50: 8.48 µM
  TGI: > 93.9 µM
